Consider 58 molecules from US12581252B2, “Substituted pyrrolo[3,4-b]pyridines as PI3K-α inhibitors” (Relay Therapeutics, Inc., priority 2020, dated 2026).

Broadly, the IC50 is the concentration that gives 50% inhibition.

Where only a bound is given, the exact number is not on record here.

Sequence of H1047R PIK3CA enzyme (P42336 whole entry H1047R): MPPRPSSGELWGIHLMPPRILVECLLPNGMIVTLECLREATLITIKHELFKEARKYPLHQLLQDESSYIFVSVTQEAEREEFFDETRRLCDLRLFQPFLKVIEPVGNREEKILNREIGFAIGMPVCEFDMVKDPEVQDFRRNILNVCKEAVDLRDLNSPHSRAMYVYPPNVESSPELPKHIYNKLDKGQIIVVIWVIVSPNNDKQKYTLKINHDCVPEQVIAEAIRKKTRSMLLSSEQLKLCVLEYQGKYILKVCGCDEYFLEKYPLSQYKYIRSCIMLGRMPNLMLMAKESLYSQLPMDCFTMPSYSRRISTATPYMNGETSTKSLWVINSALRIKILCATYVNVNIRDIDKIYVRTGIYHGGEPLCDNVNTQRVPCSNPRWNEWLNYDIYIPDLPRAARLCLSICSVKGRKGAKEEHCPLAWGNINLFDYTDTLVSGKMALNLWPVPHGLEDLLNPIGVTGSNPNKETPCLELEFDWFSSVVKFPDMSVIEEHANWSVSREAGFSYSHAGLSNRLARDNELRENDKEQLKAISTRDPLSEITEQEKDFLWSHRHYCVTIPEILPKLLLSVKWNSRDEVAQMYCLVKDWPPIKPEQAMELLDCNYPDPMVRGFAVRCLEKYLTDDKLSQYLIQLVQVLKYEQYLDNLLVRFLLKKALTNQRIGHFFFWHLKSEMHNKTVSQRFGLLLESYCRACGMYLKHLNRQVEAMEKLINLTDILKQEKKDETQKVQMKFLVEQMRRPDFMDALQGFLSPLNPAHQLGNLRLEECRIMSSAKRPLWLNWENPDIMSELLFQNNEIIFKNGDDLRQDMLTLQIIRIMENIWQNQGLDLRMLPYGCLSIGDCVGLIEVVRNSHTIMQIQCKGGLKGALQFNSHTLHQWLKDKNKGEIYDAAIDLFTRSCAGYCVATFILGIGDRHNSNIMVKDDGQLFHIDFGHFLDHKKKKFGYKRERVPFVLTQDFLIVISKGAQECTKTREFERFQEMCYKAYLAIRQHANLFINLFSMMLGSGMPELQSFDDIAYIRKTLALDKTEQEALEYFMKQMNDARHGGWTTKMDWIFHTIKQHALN
Sequence of H1047R PIK3CA enzyme (P27986 whole entry partner): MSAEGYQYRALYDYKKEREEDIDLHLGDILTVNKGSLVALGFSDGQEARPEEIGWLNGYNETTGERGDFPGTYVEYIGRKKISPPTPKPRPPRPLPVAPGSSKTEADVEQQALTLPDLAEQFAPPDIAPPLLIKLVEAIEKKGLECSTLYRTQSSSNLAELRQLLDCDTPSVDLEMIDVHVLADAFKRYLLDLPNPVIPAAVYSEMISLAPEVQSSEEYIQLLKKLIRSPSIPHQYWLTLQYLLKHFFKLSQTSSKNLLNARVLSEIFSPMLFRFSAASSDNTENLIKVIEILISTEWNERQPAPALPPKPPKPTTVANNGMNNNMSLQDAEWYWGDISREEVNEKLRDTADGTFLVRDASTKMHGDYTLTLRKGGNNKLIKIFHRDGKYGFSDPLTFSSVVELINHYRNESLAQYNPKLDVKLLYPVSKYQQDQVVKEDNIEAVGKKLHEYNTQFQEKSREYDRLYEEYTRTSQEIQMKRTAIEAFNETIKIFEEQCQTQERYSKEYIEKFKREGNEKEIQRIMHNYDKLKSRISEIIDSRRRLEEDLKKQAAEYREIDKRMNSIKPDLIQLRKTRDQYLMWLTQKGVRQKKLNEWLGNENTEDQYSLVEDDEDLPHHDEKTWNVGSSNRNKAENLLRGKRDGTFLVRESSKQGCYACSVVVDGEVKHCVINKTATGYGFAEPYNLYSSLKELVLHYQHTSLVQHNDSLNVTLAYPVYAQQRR

The assay has as its target H1047R PIK3CA enzyme (Homo sapiens, UniProt P42336, H1047R). In words: ADP-Glo Biochemical PIK3CA Kinase Assay.
Turning to `CNS(=O)(=O)Cc1cc(NC(=O)c2cc(F)cc(C(F)(F)F)c2)c2c(c1)C(=O)N[C@@H]2c1cc(F)ccc1Cl` [Compound I-1533], the IC50 fell in the range of 100 to 500 nM. Take `CNS(=O)(=O)Cc1cc(NC(=O)c2cc(F)cc(C(F)(F)F)c2)c2c(c1)C(=O)N[C@H]2c1cc(F)ccc1Cl` [Compound I-1534]: the IC50 was not above 100 nM.

`Cn1cc(NS(=O)(=O)Cc2cc(NC(=O)c3cc(F)cc(C(F)(F)F)c3)c3c(c2)C(=O)NC3c2cc(F)ccc2Cl)cn1` (stereo not shown) [Compound I-1535] displayed an IC50 not above 100 nM. With `O=C(Nc1cc(CS(=O)(=O)c2cccnc2)cc2c1C(c1cc(F)ccc1Cl)NC2=O)c1cc(F)cc(C(F)(F)F)c1` (stereo not shown) [Compound I-1536] the figure was not above 100 nM.

Regarding `N#Cc1ccncc1-c1cc(NC(=O)c2cc(F)cc(C(F)(F)F)c2)c2c(c1)C(=O)NC2c1cc(F)ccc1Cl` (stereo not shown) [Compound I-1537], the IC50 is not above 100 nM. Next, `N#Cc1cc2ncnn2cc1-c1cc(NC(=O)c2cc(F)cc(C(F)(F)F)c2)c2c(c1)C(=O)NC2c1cc(F)ccc1Cl` (stereo not shown) [Compound I-1539]: not above 100 nM. Next, `CC(C)(O)c1cnc2ccc(-c3cc(NC(=O)c4cc(F)cc(C(F)(F)F)c4)c4c(c3)C(=O)NC4c3cc(F)ccc3Cl)cc2c1` (stereo not shown) [Compound I-1540]: not above 100 nM; `O=C(Nc1cc(-c2cnc(C(O)CO)nc2)cc2c1C(c1cc(F)ccc1Cl)NC2=O)c1cc(F)cc(C(F)(F)F)c1` (stereo not shown) [Compound I-1542]: not above 100 nM. In turn, `CS(=O)(=O)Oc1cc(NC(=O)c2cc(F)cc(C(F)(F)F)c2)c2c(c1)C(=O)NC2c1cc(F)ccc1Cl` (stereo not shown) [Compound I-1543] displayed an IC50 not above 100 nM.

The molecule `O=C(Nc1cc(-c2cnc3ocnc3c2)cc2c1C(c1cc(F)ccc1Cl)NC2=O)c1cc(F)cc(C(F)(F)F)c1` (stereo not shown) [Compound I-1544] displayed an IC50 not above 100 nM. Next, `O=C1CCc2cc(F)cc(C(=O)Nc3cccc4c3C(c3cc(F)ccc3Cl)NC4=O)c2N1` (stereo not shown) [Compound I-1545]: 10000 to 100000 nM. With `O=C1CCc2cc(F)cc(C(=O)Nc3cc(Br)cc4c3C(c3cc(F)ccc3Cl)NC4=O)c2N1` (stereo not shown) [Compound I-1546] the figure was 10000 to 100000 nM. With `O=C(Nc1cc(-c2ccc3ncnn3c2)cc2c1C(c1cc(F)ccc1Cl)NC2=O)c1cc(F)cc2c1NC(=O)C2(F)F` (stereo not shown) [Compound I-1547] the figure was not above 100 nM; with `CNC(=O)c1cc(NC(=O)c2ccccc2)c2c(c1)C(=O)NC2c1cc(F)ccc1Cl` (stereo not shown) [Compound I-1548], 10000 to 100000 nM. Molecule `O=C1NC(c2cc(F)ccc2Cl)c2c(NC(=O)C3CCCCC3)cc(-c3ccc4ncnn4c3)cc21` (stereo not shown) [Compound I-1549] showed an IC50 of 1000 to 10000 nM. The molecule `O=C(Nc1cc(-c2ccc3ncnn3c2)cc2c1C(c1cc(F)ccc1Cl)NC2=O)c1ccccc1` (stereo not shown) [Compound I-1550] registered an IC50 of 1000 to 10000 nM.

Molecule `[2H]C([2H])(c1cc(NC(=O)c2cc(F)cc(C(F)(F)F)c2)c2c(c1)C(=O)NC2c1cc(F)ccc1Cl)S(C)(=O)=O` (stereo not shown) [Compound I-1551] displayed an IC50 not above 100 nM. As to `O=CNc1nc(-c2cc(NC(=O)c3cc(F)cc(C(F)(F)F)c3)c3c(c2)C(=O)NC3c2cc(F)ccc2Cl)ccc1O` (stereo not shown) [Compound I-1552], the IC50 was not above 100 nM. As to `O=C(Nc1cc(-c2ccc3ocnc3n2)cc2c1C(c1cc(F)ccc1Cl)NC2=O)c1cc(F)cc(C(F)(F)F)c1` (stereo not shown) [Compound I-1553], the IC50 was not above 100 nM. `N#CC1CN(S(=O)(=O)Cc2cc(NC(=O)c3cc(F)cc(C(F)(F)F)c3)c3c(c2)C(=O)NC3c2cc(F)ccc2Cl)C1` (stereo not shown) [Compound I-1556] registered an IC50 not above 100 nM. `N#Cc1nccn1Cc1cc(NC(=O)c2cc(F)cc(C(F)(F)F)c2)c2c(c1)C(=O)NC2c1cc(F)ccc1Cl` (stereo not shown) [Compound I-1557] returned an IC50 not above 100 nM. Next, `O=C(Nc1cc(CS(=O)(=O)c2ncccn2)cc2c1C(c1cc(F)ccc1Cl)NC2=O)c1cc(F)cc(C(F)(F)F)c1` (stereo not shown) [Compound I-1570]: not above 100 nM.

In turn, `O=C(Nc1cc(-c2cnn(-c3cscn3)c2)cc2c1C(c1cc(F)ccc1Cl)NC2=O)c1cc(F)cc(C(F)(F)F)c1` (stereo not shown) [Compound I-1571] registered an IC50 not above 100 nM. Next, `O=C(Nc1cc(-c2cnn(-c3nccs3)c2)cc2c1C(c1cc(F)ccc1Cl)NC2=O)c1cc(F)cc(C(F)(F)F)c1` (stereo not shown) [Compound I-1572]: not above 100 nM; `O=C(Nc1cc(-c2ccc3nc(Cl)nn3c2)cc2c1C(c1cc(F)ccc1Cl)NC2=O)c1cc(F)cc(C(F)(F)F)c1` (stereo not shown) [Compound I-1573]: not above 100 nM.

In turn, `O=C(Nc1cc(-c2ccc3nnc(Cl)n3c2)cc2c1C(c1cc(F)ccc1Cl)NC2=O)c1cc(F)cc(C(F)(F)F)c1` (stereo not shown) [Compound I-1574] gave an IC50 not above 100 nM. Molecule `O=C(Nc1cc(-c2ccc3nc(Cl)nn3c2)cc2c1C(c1cc(F)ccc1Cl)NC2=O)c1cc(F)cc(C(F)(F)F)c1` (stereo not shown) [Compound I-1575] gave an IC50 not above 100 nM. Next, `O=C1NC(c2cc(F)ccc2Cl)c2c1cccc2-n1cc2ccccc2cc1=O` (stereo not shown) [Compound I-1580]: 10000 to 100000 nM; `CC(=O)Nc1cccc2c1C(c1cc(F)ccc1Cl)NC2=O` (stereo not shown) [Compound I-1581]: 10000 to 100000 nM; `O=C(Nc1cc(Br)cc2c1C(c1cc(F)ccc1Cl)NC2=O)c1cc(F)cc(CC(F)(F)F)c1` (stereo not shown) [Compound I-1582]: 500 to 1000 nM.

Consider `O=C(Nc1cc(-c2ccc3ncnn3c2)cc2c1[C@@H](c1cc(F)ccc1Cl)NC2=O)c1cc(F)cc2c1NC(=O)C2(F)F` [Compound I-1583], for which the IC50 was 1000 to 10000 nM. As to `O=C(Nc1cc(-c2ccc3ncnn3c2)cc2c1[C@H](c1cc(F)ccc1Cl)NC2=O)c1cc(F)cc2c1NC(=O)C2(F)F` [Compound I-1584], the IC50 is 100 to 500 nM. With `N#Cc1cc2nccn2cc1-c1cc(NC(=O)c2cc(F)cc(C(F)(F)F)c2)c2c(c1)C(=O)N[C@@H]2c1cc(F)ccc1Cl` [Compound I-1585] the figure was 500 to 1000 nM. In turn, `N#Cc1cc2nccn2cc1-c1cc(NC(=O)c2cc(F)cc(C(F)(F)F)c2)c2c(c1)C(=O)N[C@H]2c1cc(F)ccc1Cl` [Compound I-1586] registered an IC50 not above 100 nM. As for `O=C1C=C(c2cc(NC(=O)c3cc(F)cc(C(F)(F)F)c3)c3c(c2)C(=O)NC3c2cc(F)ccc2Cl)CO1` (stereo not shown) [Compound I-1587], the IC50 was not above 100 nM. Next, `N#Cc1cnn(Cc2cc(NC(=O)c3cc(F)cc(C(F)(F)F)c3)c3c(c2)C(=O)NC3c2cc(F)ccc2Cl)c1` (stereo not shown) [Compound I-1588]: not above 100 nM. With `[2H]c1nc2ccc(-c3cc(NC(=O)c4cc(F)cc(C(F)(F)F)c4)c4c(c3)C(=O)NC4c3cc(F)ccc3Cl)cn2n1` (stereo not shown) [Compound I-1589] the figure was not above 100 nM; with `O=C1NC(c2cc(F)ccc2Cl)c2c1cccc2-n1ccc2ccccc2c1=O` (stereo not shown) [Compound I-1590], 10000 to 100000 nM.

With `O=C(Nc1cc(CS(=O)(=O)c2ccccc2)cc2c1[C@H](c1cc(F)ccc1Cl)NC2=O)c1cc(F)cc(C(F)(F)F)c1` [Compound I-1591], the IC50 is not above 100 nM. Next, `CN(C)S(=O)(=O)n1cc(-c2cc(NC(=O)c3cc(F)cc(C(F)(F)F)c3)c3c(c2)C(=O)NC3c2cc(F)ccc2Cl)cn1` (stereo not shown) [Compound I-1592]: not above 100 nM; `O=C(Nc1cc(CS(=O)(=O)c2ccccc2)cc2c1[C@@H](c1cc(F)ccc1Cl)NC2=O)c1cc(F)cc(C(F)(F)F)c1` [Compound I-1593]: 1000 to 10000 nM; `N#Cc1cccc(S(=O)(=O)Cc2cc(NC(=O)c3cc(F)cc(C(F)(F)F)c3)c3c(c2)C(=O)N[C@H]3c2cc(F)ccc2Cl)c1` [Compound I-1594]: not above 100 nM. As to `N#Cc1cccc(S(=O)(=O)Cc2cc(NC(=O)c3cc(F)cc(C(F)(F)F)c3)c3c(c2)C(=O)N[C@@H]3c2cc(F)ccc2Cl)c1` [Compound I-1595], the IC50 lay in the range of 1000 to 10000 nM.

In turn, `CN(C)S(=O)(=O)n1nccc1-c1cc(NC(=O)c2cc(F)cc(C(F)(F)F)c2)c2c(c1)C(=O)N[C@@H]2c1cc(F)ccc1Cl` [Compound I-1598] returned an IC50 of 500 to 1000 nM. Next, `CN(C)S(=O)(=O)n1nccc1-c1cc(NC(=O)c2cc(F)cc(C(F)(F)F)c2)c2c(c1)C(=O)N[C@H]2c1cc(F)ccc1Cl` [Compound I-1599]: not above 100 nM; `COc1cnc2ccc(-c3cc(NC(=O)c4cc(F)cc(C(F)(F)F)c4)c4c(c3)C(=O)NC4c3cc(F)ccc3Cl)cc2c1` (stereo not shown) [Compound I-1602]: not above 100 nM. With `N#Cc1cnc2ccc(-c3cc(NC(=O)c4cc(F)cc(C(F)(F)F)c4)c4c(c3)C(=O)NC4c3cc(F)ccc3Cl)cc2c1` (stereo not shown) [Compound I-1603] the figure was not above 100 nM; with `CC(C)(O)c1cnc2ccc(-c3cc(NC(=O)c4cc(F)cc(C(F)(F)F)c4)c4c(c3)C(=O)N[C@H]4c3cc(F)ccc3Cl)cc2c1` [Compound I-1604], not above 100 nM. With `CC(C)(O)c1cnc2ccc(-c3cc(NC(=O)c4cc(F)cc(C(F)(F)F)c4)c4c(c3)C(=O)N[C@@H]4c3cc(F)ccc3Cl)cc2c1` [Compound I-1605] the figure was 10000 to 100000 nM; with `O=C(Nc1cc(-c2ccn3nc(Cl)nc3c2)cc2c1[C@@H](c1cc(F)ccc1Cl)NC2=O)c1cc(F)cc(C(F)(F)F)c1` [Compound I-1606], 100 to 500 nM.

`O=C(Nc1cc(-c2ccc3ncnn3c2)nc2c1C(C1CCCCC1)NC2=O)c1cc(F)cc(C(F)(F)F)c1` (stereo not shown) [Compound I-1607]: the IC50 lay in the range of 500 to 1000 nM. `O=C(Nc1cc(-c2cnn(-c3cnccn3)c2)cc2c1C(c1cc(F)ccc1Cl)NC2=O)c1cc(F)cc(C(F)(F)F)c1` (stereo not shown) [Compound I-1608]: the IC50 was not above 100 nM. Next, `O=C(Nc1cc(-c2ccc3ncnn3c2)cc2c1C(c1cc(F)ccc1Cl)NC2=O)c1cc2ccccc2[nH]1` (stereo not shown) [Compound I-1609]: 1000 to 10000 nM; `O=C(Nc1cc(Br)cc2c1C(c1cc(F)ccc1Cl)NC2=O)c1cc2ccccc2[nH]1` (stereo not shown) [Compound I-1610]: 1000 to 10000 nM; `O=C(Nc1cccc2c1C(C1CCCCC1)NC2=O)c1cc(F)cc(C(F)(F)F)c1` (stereo not shown) [Compound I-1611]: 1000 to 10000 nM. As to `O=C(Nc1cc(-c2cnn(-c3ncc(F)cn3)c2)cc2c1C(c1cc(F)ccc1Cl)NC2=O)c1cc(F)cc(C(F)(F)F)c1` (stereo not shown) [Compound I-1616], the IC50 was not above 100 nM. With `O=C(Nc1cc(Br)cc2c1C(c1cc(F)ccc1Cl)NC2=O)c1nc2ccccc2[nH]1` (stereo not shown) [Compound I-1617] the figure was 1000 to 10000 nM; with `CC(C)(C#N)n1cc(-c2cc(NC(=O)c3cc(F)cc(C(F)(F)F)c3)c3c(c2)C(=O)NC3c2cc(F)ccc2Cl)cn1` (stereo not shown) [Compound I-1618], not above 100 nM.
